Measured values as given in publication PMC6240093, “Identification of Two Mannosyltransferases Contributing to Biosynthesis of the Fungal-type Galactomannan α-Core-Mannan Structure in Aspergillus fumigatus” (Scientific Reports, 2018).

Target: T1, CmsA (Aspergillus fumigatus, UniProt B0Y2F5)
T1 construct: gene AFUB_051270; catalytic domain residues 27-397 (N-terminal TM removed)
Test: HPLC (UV300) of product with p-nitrophenyl alpha-D-mannopyranoside as acceptor
Assay type: biochemical
Details: donor 1.5 mM; p-nitrophenyl alpha-D-mannopyranoside 1.5 mM; 1.5 mM MnCl2; pH 7.0; 37 °C

T1 sequence (B0Y2F5 entry or part of it): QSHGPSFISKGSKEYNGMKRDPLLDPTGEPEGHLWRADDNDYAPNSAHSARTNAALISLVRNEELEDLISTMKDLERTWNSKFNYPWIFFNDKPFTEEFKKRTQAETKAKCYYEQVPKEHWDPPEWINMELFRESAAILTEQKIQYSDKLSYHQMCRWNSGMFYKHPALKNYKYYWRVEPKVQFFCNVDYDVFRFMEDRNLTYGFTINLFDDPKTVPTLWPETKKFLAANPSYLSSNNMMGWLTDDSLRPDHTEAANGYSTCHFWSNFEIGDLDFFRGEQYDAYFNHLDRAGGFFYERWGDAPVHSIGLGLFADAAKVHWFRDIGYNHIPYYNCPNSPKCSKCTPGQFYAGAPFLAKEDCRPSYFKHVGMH

Nc1nc2c(ncn2[C@@H]2O[C@H](COP(=O)(O)OP(=O)(O)O[C@H]3O[C@H](CO)[C@@H](O)[C@H](O)[C@@H]3O)[C@@H](O)[C@H]2O)c(=O)[nH]1 [GDP-Man]
HPLC (UV300) of product with p-nitrophenyl alpha-D-mannopyranoside as acceptor: CmsA has GDP-Man: α-mannoside α-1,2-mannosyltransferase activity in vitro
